PMC5290327, “SC83288 is a clinical development candidate for the treatment of severe malaria” (Nature Communications, 2017)

Experiments:
Assay in all cases: KINOMEscan
Assay type in all cases: binding
Conditions in all cases: read-out: Remaining enzyme activity
PCTK2 = target: T1, PCTK2 (Homo sapiens, UniProt Q00537)
T1 construct: purchased Ambit (DiscoverX) KINOMEscan; Cerep
In short: (§1)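 Binding, not activity: the compound competes with an active-site directed ligand on beads for DNA-tagged human kinase. Quantitative PCR of the tag gives the kinase recovered. Single concentration, 10 μM SC81458.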

MST2 = target: T2, MST2 (Homo sapiens, UniProt Q13188)
T2 construct: purchased Ambit (DiscoverX) KINOMEscan; Cerep
T2 sequence (Q13188 whole entry): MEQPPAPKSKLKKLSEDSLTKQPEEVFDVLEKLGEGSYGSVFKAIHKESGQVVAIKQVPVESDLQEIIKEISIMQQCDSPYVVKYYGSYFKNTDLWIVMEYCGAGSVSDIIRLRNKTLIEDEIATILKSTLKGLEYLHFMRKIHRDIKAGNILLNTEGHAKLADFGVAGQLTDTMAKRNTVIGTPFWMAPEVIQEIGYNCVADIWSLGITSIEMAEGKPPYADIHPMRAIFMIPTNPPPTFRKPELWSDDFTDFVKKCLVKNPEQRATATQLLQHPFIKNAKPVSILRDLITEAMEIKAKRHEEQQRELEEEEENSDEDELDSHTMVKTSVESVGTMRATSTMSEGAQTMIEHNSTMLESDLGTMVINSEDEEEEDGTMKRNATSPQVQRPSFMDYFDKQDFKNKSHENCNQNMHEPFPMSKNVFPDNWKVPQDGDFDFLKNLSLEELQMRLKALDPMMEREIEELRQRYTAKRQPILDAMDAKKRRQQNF
In short: as §1

NEK1 = target: T3, NEK1 (Homo sapiens, UniProt Q96PY6)
T3 construct: purchased Ambit (DiscoverX) KINOMEscan; Cerep
In short: as §1

p38-beta = target: T4, p38-beta (Homo sapiens, UniProt Q15759)
T4 construct: purchased Ambit (DiscoverX) KINOMEscan; Cerep
In short: as §1

CHEK2 = target: T5, CHEK2 (Homo sapiens, UniProt O96017)
T5 construct: purchased Ambit (DiscoverX) KINOMEscan; Cerep
In short: as §1

SYK = target: T6, SYK (Homo sapiens, UniProt P43405)
T6 construct: purchased Ambit (DiscoverX) KINOMEscan; Cerep
In short: as §1

ERK2 = target: T7, ERK2 (Homo sapiens, UniProt P28482)
T7 construct: purchased Ambit (DiscoverX) KINOMEscan; Cerep
T7 sequence (P28482 whole entry): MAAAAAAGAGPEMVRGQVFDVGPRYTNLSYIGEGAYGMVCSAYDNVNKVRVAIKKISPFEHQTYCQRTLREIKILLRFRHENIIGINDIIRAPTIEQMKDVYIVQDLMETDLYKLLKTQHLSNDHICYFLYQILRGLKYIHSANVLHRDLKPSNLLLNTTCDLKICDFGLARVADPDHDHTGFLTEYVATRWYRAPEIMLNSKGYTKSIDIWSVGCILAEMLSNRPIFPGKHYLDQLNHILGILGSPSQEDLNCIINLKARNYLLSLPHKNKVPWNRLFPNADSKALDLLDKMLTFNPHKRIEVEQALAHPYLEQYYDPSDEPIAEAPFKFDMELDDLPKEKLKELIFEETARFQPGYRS
In short: as §1

[1] = target: T8, JAK3(JH1domain-catalytic) (Homo sapiens, UniProt P52333)
T8 construct: JAK3(JH1domain-catalytic); purchased Ambit (DiscoverX) KINOMEscan; Cerep
In short: as §1

PAK6 = target: T9, PAK6 (Homo sapiens, UniProt Q9NQU5)
T9 construct: purchased Ambit (DiscoverX) KINOMEscan; Cerep
T9 sequence (Q9NQU5 whole entry): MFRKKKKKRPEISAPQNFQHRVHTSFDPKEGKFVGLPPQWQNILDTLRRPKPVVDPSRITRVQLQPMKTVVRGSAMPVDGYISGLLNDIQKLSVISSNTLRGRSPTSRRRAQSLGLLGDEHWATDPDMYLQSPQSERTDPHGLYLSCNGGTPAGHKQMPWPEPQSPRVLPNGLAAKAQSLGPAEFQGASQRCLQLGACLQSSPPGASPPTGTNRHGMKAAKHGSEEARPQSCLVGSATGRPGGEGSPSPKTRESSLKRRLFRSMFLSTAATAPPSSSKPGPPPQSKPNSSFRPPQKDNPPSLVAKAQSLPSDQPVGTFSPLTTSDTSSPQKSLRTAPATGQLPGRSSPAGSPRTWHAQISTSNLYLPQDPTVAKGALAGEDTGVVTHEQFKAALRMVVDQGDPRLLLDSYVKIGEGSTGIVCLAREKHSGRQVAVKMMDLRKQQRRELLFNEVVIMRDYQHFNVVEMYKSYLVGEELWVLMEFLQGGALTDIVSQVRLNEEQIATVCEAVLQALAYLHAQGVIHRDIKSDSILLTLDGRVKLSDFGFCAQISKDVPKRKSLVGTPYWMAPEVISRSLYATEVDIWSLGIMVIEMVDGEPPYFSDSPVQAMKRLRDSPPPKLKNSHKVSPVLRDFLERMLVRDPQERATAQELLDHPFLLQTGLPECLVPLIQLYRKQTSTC
In short: as §1

MUSK = target: T10, MUSK (Homo sapiens, UniProt O15146)
T10 construct: purchased Ambit (DiscoverX) KINOMEscan; Cerep
In short: as §1

ABL1(T315I) = target: T11, ABL1(T315I) (Homo sapiens, UniProt P00519, T315I)
T11 construct: purchased Ambit (DiscoverX) KINOMEscan; Cerep
In short: as §1

DCAMKL1 = target: T12, DCAMKL1 (Homo sapiens, UniProt O15075)
T12 construct: purchased Ambit (DiscoverX) KINOMEscan; Cerep
T12 sequence (O15075 whole entry): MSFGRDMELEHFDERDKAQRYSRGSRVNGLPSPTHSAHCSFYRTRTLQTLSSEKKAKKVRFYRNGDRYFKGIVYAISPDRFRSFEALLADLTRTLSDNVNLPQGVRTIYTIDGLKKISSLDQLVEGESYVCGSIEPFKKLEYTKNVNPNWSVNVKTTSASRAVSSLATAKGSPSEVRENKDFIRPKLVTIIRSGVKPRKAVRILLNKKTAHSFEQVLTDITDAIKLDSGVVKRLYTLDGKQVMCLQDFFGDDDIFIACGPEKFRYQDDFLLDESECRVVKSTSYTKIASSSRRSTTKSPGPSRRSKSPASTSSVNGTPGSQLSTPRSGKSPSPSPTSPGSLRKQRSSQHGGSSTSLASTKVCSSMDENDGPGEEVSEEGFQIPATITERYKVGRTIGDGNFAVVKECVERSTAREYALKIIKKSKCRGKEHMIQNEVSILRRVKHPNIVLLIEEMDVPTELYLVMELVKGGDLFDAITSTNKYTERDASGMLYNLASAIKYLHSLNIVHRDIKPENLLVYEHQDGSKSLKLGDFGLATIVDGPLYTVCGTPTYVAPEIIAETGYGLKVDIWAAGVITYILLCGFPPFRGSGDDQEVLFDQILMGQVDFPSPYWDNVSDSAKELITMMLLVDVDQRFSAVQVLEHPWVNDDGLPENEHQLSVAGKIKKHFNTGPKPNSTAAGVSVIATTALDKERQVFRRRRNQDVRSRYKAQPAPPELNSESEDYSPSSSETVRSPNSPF
In short: as §1

FLT3 = target: T13, FLT3 (Homo sapiens, UniProt P36888)
T13 construct: purchased Ambit (DiscoverX) KINOMEscan; Cerep
In short: as §1

CAMK4 = target: T14, CAMK4 (Homo sapiens, UniProt Q16566)
T14 construct: purchased Ambit (DiscoverX) KINOMEscan; Cerep
In short: as §1

EGFR(G719S) = target: T15, EGFR(G719S) (Homo sapiens, UniProt P00533, G719S)
T15 construct: purchased Ambit (DiscoverX) KINOMEscan; Cerep
In short: as §1

PRKG2 = target: T16, PRKG2 (Homo sapiens, UniProt Q13237)
T16 construct: purchased Ambit (DiscoverX) KINOMEscan; Cerep
In short: as §1

ABL1(F317L) = target: T17, ABL1(F317L) (Homo sapiens, UniProt P00519, F317L)
T17 construct: purchased Ambit (DiscoverX) KINOMEscan; Cerep
In short: as §1

GRK1 = target: T18, GRK1 (Homo sapiens, UniProt Q15835)
T18 construct: purchased Ambit (DiscoverX) KINOMEscan; Cerep
In short: as §1

MEK4 = target: T19, MEK4 (Homo sapiens, UniProt P45985)
T19 construct: purchased Ambit (DiscoverX) KINOMEscan; Cerep
In short: as §1

SgK085 = target: T20, SgK085 (Homo sapiens, UniProt Q86YV6)
T20 construct: purchased Ambit (DiscoverX) KINOMEscan; Cerep
T20 sequence (Q86YV6 whole entry): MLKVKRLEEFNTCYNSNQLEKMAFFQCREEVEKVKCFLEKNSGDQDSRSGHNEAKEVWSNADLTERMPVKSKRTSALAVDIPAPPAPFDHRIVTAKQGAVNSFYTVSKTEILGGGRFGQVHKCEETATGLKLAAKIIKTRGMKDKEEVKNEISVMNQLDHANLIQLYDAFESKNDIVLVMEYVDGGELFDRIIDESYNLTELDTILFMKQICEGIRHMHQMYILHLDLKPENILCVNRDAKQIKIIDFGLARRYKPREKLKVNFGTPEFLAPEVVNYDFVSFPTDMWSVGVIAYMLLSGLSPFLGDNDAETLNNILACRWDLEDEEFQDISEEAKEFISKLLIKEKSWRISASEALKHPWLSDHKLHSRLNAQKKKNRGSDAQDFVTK
In short: as §1

JNK1 = target: T21, JNK1 (Homo sapiens, UniProt P45983)
T21 construct: purchased Ambit (DiscoverX) KINOMEscan; Cerep
In short: as §1

NEK7 = target: T22, NEK7 (Homo sapiens, UniProt Q8TDX7)
T22 construct: purchased Ambit (DiscoverX) KINOMEscan; Cerep
In short: as §1

MAP4K5 = target: T23, MAP4K5 (Homo sapiens, UniProt Q9Y4K4)
T23 construct: purchased Ambit (DiscoverX) KINOMEscan; Cerep
In short: as §1

GSK3b = target: T24, GSK3b (Homo sapiens, UniProt P49841)
T24 construct: purchased Ambit (DiscoverX) KINOMEscan; Cerep
T24 sequence (P49841 whole entry): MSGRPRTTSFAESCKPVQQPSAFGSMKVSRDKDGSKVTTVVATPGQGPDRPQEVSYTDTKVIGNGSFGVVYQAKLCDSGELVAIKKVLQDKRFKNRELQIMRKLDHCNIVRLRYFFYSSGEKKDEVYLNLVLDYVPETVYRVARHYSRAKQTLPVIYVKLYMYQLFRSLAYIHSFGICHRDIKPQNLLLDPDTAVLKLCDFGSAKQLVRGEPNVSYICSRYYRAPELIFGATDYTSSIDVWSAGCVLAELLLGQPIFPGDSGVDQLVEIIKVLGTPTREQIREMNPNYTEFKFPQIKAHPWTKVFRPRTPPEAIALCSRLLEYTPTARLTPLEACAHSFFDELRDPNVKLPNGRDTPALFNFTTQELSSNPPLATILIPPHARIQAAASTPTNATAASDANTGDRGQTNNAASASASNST
In short: as §1

PAK3 = target: T25, PAK3 (Homo sapiens, UniProt O75914)
T25 construct: purchased Ambit (DiscoverX) KINOMEscan; Cerep
In short: as §1

PIK3CA(M1043I) = target: T26, PIK3CA(M1043I) (Homo sapiens, UniProt P42336, M1043I)
T26 construct: purchased Ambit (DiscoverX) KINOMEscan; Cerep
In short: as §1

LATS2 = target: T27, LATS2 (Homo sapiens, UniProt Q9NRM7)
T27 construct: purchased Ambit (DiscoverX) KINOMEscan; Cerep
In short: as §1

[2] = target: T28, RPS6KA5(Kin.Dom.2-C-term) (Homo sapiens, UniProt O75582)
T28 construct: RPS6KA5(Kin.Dom.2-C-term); purchased Ambit (DiscoverX) KINOMEscan; Cerep
In short: as §1

CAMK2d = target: T29, CAMK2d (Homo sapiens, UniProt Q13557)
T29 construct: purchased Ambit (DiscoverX) KINOMEscan; Cerep
T29 sequence (Q13557 whole entry): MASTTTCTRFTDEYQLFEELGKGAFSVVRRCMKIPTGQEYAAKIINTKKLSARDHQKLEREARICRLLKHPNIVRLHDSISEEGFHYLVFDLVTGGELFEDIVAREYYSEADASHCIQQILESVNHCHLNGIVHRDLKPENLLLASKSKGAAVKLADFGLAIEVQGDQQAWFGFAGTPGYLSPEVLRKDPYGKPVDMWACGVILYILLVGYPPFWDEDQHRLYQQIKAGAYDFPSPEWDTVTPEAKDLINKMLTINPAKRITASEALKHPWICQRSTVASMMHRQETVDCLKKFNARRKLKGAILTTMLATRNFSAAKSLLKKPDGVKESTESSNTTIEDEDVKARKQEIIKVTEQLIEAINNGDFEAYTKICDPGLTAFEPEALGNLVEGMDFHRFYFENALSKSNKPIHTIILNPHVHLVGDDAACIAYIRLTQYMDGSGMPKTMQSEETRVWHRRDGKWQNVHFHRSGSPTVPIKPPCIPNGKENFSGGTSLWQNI
In short: as §1

BTK = target: T30, BTK (Homo sapiens, UniProt Q06187)
T30 construct: purchased Ambit (DiscoverX) KINOMEscan; Cerep
In short: as §1

PRP4 = target: T31, PRP4 (Homo sapiens, UniProt Q13523)
T31 construct: purchased Ambit (DiscoverX) KINOMEscan; Cerep
T31 sequence (Q13523 whole entry): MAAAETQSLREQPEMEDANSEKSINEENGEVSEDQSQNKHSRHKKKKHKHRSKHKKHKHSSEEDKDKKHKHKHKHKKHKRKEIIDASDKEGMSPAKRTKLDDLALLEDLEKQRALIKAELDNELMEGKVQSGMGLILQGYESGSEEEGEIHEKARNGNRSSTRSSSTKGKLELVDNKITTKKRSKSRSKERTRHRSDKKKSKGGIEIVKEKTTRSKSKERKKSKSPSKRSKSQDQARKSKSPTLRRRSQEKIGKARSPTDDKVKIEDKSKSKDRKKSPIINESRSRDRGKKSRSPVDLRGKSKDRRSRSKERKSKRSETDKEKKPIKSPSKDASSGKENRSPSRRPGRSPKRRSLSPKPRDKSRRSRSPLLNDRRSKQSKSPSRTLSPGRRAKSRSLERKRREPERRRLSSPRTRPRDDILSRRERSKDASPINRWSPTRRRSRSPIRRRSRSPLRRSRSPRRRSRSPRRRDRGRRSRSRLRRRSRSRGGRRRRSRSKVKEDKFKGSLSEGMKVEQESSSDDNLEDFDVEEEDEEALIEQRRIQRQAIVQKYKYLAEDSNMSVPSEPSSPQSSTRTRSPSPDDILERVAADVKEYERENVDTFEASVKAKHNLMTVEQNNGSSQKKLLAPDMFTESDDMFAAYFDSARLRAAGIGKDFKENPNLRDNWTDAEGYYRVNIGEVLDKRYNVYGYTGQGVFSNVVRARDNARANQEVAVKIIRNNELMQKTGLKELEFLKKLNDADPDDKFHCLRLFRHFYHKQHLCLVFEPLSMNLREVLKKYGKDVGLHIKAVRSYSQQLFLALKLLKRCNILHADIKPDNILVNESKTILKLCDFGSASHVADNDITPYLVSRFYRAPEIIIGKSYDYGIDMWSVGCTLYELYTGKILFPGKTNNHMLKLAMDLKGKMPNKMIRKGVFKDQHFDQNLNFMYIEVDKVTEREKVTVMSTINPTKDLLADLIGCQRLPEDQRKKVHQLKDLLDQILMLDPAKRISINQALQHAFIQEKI
In short: as §1

PRKD2 = target: T32, PRKD2 (Homo sapiens, UniProt Q9BZL6)
T32 construct: purchased Ambit (DiscoverX) KINOMEscan; Cerep
In short: as §1

SBK1 = target: T33, SBK1 (Homo sapiens, UniProt Q52WX2)
T33 construct: purchased Ambit (DiscoverX) KINOMEscan; Cerep
T33 sequence (Q52WX2 whole entry): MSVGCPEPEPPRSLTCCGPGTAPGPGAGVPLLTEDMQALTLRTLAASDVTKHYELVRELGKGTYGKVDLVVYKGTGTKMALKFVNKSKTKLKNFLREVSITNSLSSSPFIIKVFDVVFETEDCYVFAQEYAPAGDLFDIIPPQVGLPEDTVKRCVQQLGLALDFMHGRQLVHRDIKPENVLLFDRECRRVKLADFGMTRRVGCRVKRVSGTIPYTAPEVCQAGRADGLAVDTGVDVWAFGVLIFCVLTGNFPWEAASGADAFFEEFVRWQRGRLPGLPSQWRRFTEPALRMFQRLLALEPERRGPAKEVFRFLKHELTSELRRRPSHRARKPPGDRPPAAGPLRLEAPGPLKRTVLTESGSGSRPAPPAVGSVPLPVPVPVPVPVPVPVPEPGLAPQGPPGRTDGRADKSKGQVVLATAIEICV
In short: as §1

## CCCCN1CCN(C(=N)c2cccc(NC(=O)Nc3ccc(S(=O)(=O)NCc4ccc(S(N)(=O)=O)cc4)cc3)c2)CC1 [SC81458, 4-(3-(3-((4-butylpiperazin-1-yl)(imino)methyl)phenyl)ureido)-N-(4-sulfamoylbenzyl) benzenesulfonamide]
PCTK2
  remaining binding at 10 µM: 97%
MST2
  remaining binding at 10 µM: 100%
NEK1
  remaining binding at 10 µM: 83%
p38-beta
  remaining binding at 10 µM: 100%
CHEK2
  remaining binding at 10 µM: 100%
SYK
  remaining binding at 10 µM: 100%
ERK2
  remaining binding at 10 µM: 80%
[1]
  remaining binding at 10 µM: 100%
PAK6
  remaining binding at 10 µM: 95%
MUSK
  remaining binding at 10 µM: 95%
ABL1(T315I)
  remaining binding at 10 µM: 100%
DCAMKL1
  remaining binding at 10 µM: 100%
FLT3
  remaining binding at 10 µM: 100%
CAMK4
  remaining binding at 10 µM: 51%
EGFR(G719S)
  remaining binding at 10 µM: 100%
PRKG2
  remaining binding at 10 µM: 80%
ABL1(F317L)
  remaining binding at 10 µM: 100%
GRK1
  remaining binding at 10 µM: 100%
MEK4
  remaining binding at 10 µM: 100%
SgK085
  remaining binding at 10 µM: 100%
JNK1
  remaining binding at 10 µM: 98%
NEK7
  remaining binding at 10 µM: 95%
MAP4K5
  remaining binding at 10 µM: 100%
GSK3b
  remaining binding at 10 µM: 100%
PAK3
  remaining binding at 10 µM: 93%
PIK3CA(M1043I)
  remaining binding at 10 µM: 100%
LATS2
  remaining binding at 10 µM: 100%
[2]
  remaining binding at 10 µM: 100%
CAMK2d
  remaining binding at 10 µM: 90%
BTK
  remaining binding at 10 µM: 100%
PRP4
  remaining binding at 10 µM: 100%
PRKD2
  remaining binding at 10 µM: 97%
SBK1
  remaining binding at 10 µM: 72%
